Assay results reported in patent US20230099344A1, “COMPOUNDS AND METHODS FOR THE TARGETED DEGRADATION OF IRAK-4” (Arvinas Operations, Inc., priority 2021, published 2023).

The molecules below were run against T1, IRAK-4 (Homo sapiens, UniProt Q9NWZ3) (assay: IRAK-4 ELISA, PBMC degradation). Details: treated overnight.
T1 sequence (Q9NWZ3 1-460): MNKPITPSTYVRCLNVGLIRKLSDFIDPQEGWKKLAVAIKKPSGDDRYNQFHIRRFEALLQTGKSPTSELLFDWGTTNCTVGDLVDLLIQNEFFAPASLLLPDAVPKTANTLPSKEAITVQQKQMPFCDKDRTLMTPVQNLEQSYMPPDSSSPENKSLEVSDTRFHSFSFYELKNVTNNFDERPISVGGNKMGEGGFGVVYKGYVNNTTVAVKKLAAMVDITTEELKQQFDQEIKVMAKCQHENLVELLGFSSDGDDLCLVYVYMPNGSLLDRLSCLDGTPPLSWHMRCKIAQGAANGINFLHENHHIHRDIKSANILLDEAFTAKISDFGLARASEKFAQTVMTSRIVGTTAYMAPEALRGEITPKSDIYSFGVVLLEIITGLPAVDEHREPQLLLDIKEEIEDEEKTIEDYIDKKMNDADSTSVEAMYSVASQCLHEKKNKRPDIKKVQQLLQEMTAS
Format: cell-based
Set-up: endogenous in cells; host or cells: PBMC
Method: Reagents: Human IRAK-4 Matched Antibody Pair Kit (Abcam ab218182) and ELISA Accessory Pack (Abcam ab210905).
Cell Treatment and Lysis:
1. OCI-Ly10: 200,000 cells are seeded at 1×10^6/ml in 96-well U-bottom plates 200 ul per well, treated with compound the same day. Incubate overnight. 2. PBMC: 800,000 cells are seeded at 2×10^6/ml in 96-well U-bottom deep-well plates, 400 ul per well, treated with compound the same day. Incubate overnight.
Cell lysate is collected and analyzed by ELISA for IRAK-4 levels.

SMILES	DC50 [nM]	Dmax [%]	PBMC DC90	PBMC Dmax
CC(C)Oc1cc2c(cc1NC(=O)c1cnn3cccnc13)CN(C1CCN(CC3CN(c4ccc(C(=O)NC5CCC(=O)NC5=O)c(F)c4)C3)CC1)C2=O (stereo not drawn) [Example 292]	< 1	≥ 90	A (A represents a DC90 value <10.0 nM)	
O=C1CCC(N2Cc3cc(N4CC(N5CCC(N6Cc7cc(NC(=O)c8cnn9cccnc89)c(N8CCC(N9CCC9)CC8)cc7C6=O)CC5)C4)ccc3C2=O)C(=O)N1 (stereo not drawn) [Example 39]	5 to 10	≥ 90	C (C represents a DC90 value ≥25.0 nM and <50 nM)	
CC(C)Oc1cc2nn(C3CN(CC4(F)CCN(c5ccc6c(c5)C(=O)N(C5CCC(=O)NC5=O)C6=O)CC4)C3)cc2cc1NC(=O)c1cnn2cccnc12 (stereo not drawn) [Example 194]	1 to 5	≥ 90	C (C represents a DC90 value ≥25.0 nM and <50 nM)	
CC(C)Oc1cc2c(cc1NC(=O)c1cnn3cccnc13)CN(C1CCN(C[C@@H]3CCCN(c4ccc5c(c4)C(=O)N(C4CCC(=O)NC4=O)C5=O)C3)CC1)C2=O (stereo partly drawn) [Example 77]	1 to 5	≥ 90	B (B represents a DC90 value ≥10.0 nM and <25.0 nM)	
COc1cc(N2CC(CN3CCC(N4Cc5cc(NC(=O)c6cnn7cccnc67)c(OC(C)C)nc5C4=O)CC3)C2)cc2c1C(=O)N(C1CCC(=O)NC1=O)C2=O (stereo not drawn) [Example 397, N-(6-(1-((1-(2-(2,6-dioxopiperidin-3-yl)-7-methoxy-1,3-dioxoisoindolin-5-yl)azetidin-3-yl)methyl)piperidin-4-yl)-2-isopropoxy-7-oxo-6,7-dihydro-5H-pyrrolo[3,4-b]ipyridin-3-yl)pyrazolo [1,5-a]pyrimidine-3-carboxamide]	< 1		A (A represents a DC90 value <10.0 nM)	A (A represents a Dmax value ≥90)
CN(C1CCC(n2cc3cc(NC(=O)c4cnn5cccnc45)c(OCC4CC4)cc3n2)CC1)C1CN(c2ccc3c(c2)C(=O)N(C2CCC(=O)NC2=O)C3)C1 (stereo not drawn) [Example 355]	1 to 5	80 to 90	D (D represents a DC90 value ≥50 nM)	
Cn1c(=O)n(C2CCC(=O)NC2=O)c2cccc(N3CCC(CN4CCC(n5cc6cc(NC(=O)c7cnn8cccnc78)c(OCC7CC7)cc6n5)CC4)CC3)c21 (stereo not drawn) [Example 390, N-(6-(cyclopropylmethoxy)-2-(1-((1-(1-(2,6-dioxopiperidin-3-yl)-3-methyl-2-oxo-2,3-dihydro-1H-benzo[d]imidazol-4-yl)piperidin-4-yl)methyl)piperidin-4-yl)-2H-indazol-5-yl)pyrazolo[1,5-a]pyrimidine-3-carboxamide]	< 1	≥ 90	A (A represents a DC90 value <10.0 nM)	
O=C1CCC(N2C(=O)c3ccc(N4CC(F)(CN5CCC([C@H](F)CN6Cc7cc(NC(=O)c8cnn9cccnc89)c(N8CCOCC8)cc7C6=O)CC5)C4)cc3C2=O)C(=O)N1 (stereo partly drawn) [Example 413]	1 to 5	80 to 90	B (B represents a DC90 value ≥10.0 nM and <25.0 nM)	
CC(C)Oc1cc2nn(C3CCN(CCC4(F)CN(c5ccc6c(c5)C(=O)N(C5CCC(=O)NC5=O)C6=O)C4)CC3)cc2cc1NC(=O)c1cnn2cccnc12 (stereo not drawn) [Example 139]	< 1	80 to 90	A (A represents a DC90 value <10.0 nM)	
CC(C)Oc1cc2c(cc1NC(=O)c1cnn3cccnc13)CN(C1CCN(CCC3(F)CN(c4ccc5c(c4)C(=O)N(C4CCC(=O)NC4=O)C5=O)C3)CC1)C2=O (stereo not drawn) [Example 15]	< 1	80 to 90	A (A represents a DC90 value <10.0 nM)	
CC1(N2CCC(n3cc4cc(NC(=O)c5cnn6cccnc56)c(OCC5CC5)cc4n3)CC2)CN(c2ccc3c(c2)C(=O)N(C2CCC(=O)NC2=O)C3=O)C1 (stereo not drawn) [Example 228]	1 to 5	80 to 90	C (C represents a DC90 value ≥25.0 nM and <50 nM)	
CC(C)Oc1cc2nn(C[C@@H](F)C3CCN(CC4CN(c5ccc6c(c5)C(=O)N(C5CCC(=O)NC5=O)C6=O)C4)CC3)cc2cc1NC(=O)c1cnn2cccnc12 (stereo partly drawn) [Example 415]	1 to 5	80 to 90	A (A represents a DC90 value <10.0 nM)	
O=C1CCC(N2C(=O)c3ccc(N4CCC(CN5CCC(n6cc7cc(NC(=O)c8cnn9cccnc89)c(OCC(F)F)cc7n6)CC5)CC4)cc3C2=O)C(=O)N1 (stereo not drawn) [Example 148]	< 1	80 to 90	A (A represents a DC90 value <10.0 nM)	
CC(C)Oc1cc2c(cc1NC(=O)c1cnn3cccnc13)CN(C1CCN(CC3CCN(c4ccc(C(=O)NC5CCC(=O)NC5=O)c(F)c4)CC3)CC1)C2=O (stereo not drawn) [Example 286, N-[2-[1-[[1-[4-[(2,6-dioxo-3-piperidyl)carbamoyl]-3-fluoro-phenyl]-4-piperidyl]methyl]-4-piperidyl]-6-isopropoxy-1-oxo-isoindolin-5-yl]pyrazolo[1,5-a]pyrimidine-3-carboxamide]	1 to 5	≥ 90	B (B represents a DC90 value ≥10.0 nM and <25.0 nM)	
O=C1CCC(N2Cc3cc(N4CCC(CN5CCC(N6Cc7cc(NC(=O)c8cnn9cccnc89)c(OC8CC8)cc7C6=O)CC5)CC4)ccc3C2=O)C(=O)N1 (stereo not drawn) [Example 28]	< 1	≥ 90	A (A represents a DC90 value <10.0 nM)	
COc1cc(N2CC(CN3CCC(N4Cc5cc(NC(=O)c6cnn7cccnc67)c(OC(C)C)nc5C4=O)CC3)C2)cc2c1C(=O)N(C1CCC(=O)NC1=O)C2 (stereo not drawn) [Example 403]	1 to 5	≥ 90	C (C represents a DC90 value ≥25.0 nM and <50 nM)	

Second part, the molecule after the results:

DC50 [nM]	Dmax [%]	PBMC DC90	PBMC Dmax	SMILES
< 1	≥ 90	A (A represents a DC90 value <10.0 nM)		CC(C)Oc1cc2c(cc1NC(=O)c1cnn3cccnc13)CN([C@H]1CC[C@@H](N3CC4(CN(c5ccc6c(c5)CN(C5CCC(=O)NC5=O)C6=O)C4)C3)CC1)C2=O (stereo partly drawn) [Example 277]
< 1	≥ 90	A (A represents a DC90 value <10.0 nM)		CCN(C1CN(c2cccc3c2n(C)c(=O)n3C2CCC(=O)NC2=O)C1)[C@H]1CC[C@H](n2cc3cc(NC(=O)c4cnn5cccnc45)c(OC(C)C)cc3n2)CC1 (stereo partly drawn) [Example 388]
< 1	≥ 90	A (A represents a DC90 value <10.0 nM)		O=C1CCC(N2C(=O)c3ccc(N4CC(CN5CCC(N6Cc7cc(NC(=O)c8cnn9cccnc89)c(OC8CC8)cc7C6=O)CC5)C4)cc3C2=O)C(=O)N1 (stereo not drawn) [Example 84]
< 1	≥ 90	A (A represents a DC90 value <10.0 nM)		COc1cc(N2CC(CN3CCC(N4Cc5cc(NC(=O)c6cnn7cccnc67)c(OC(C)C)cc5C4=O)CC3)C2)cc2c1C(=O)N(C1CCC(=O)NC1=O)C2=O (stereo not drawn) [Example 14]
< 1	≥ 90	A (A represents a DC90 value <10.0 nM)		CC(C)Oc1cc2nn(C3CCN(CC4CCN(c5ccc6c(c5)C(=O)N(C5CCC(=O)NC5=O)C6=O)CC4)CC3)cc2cc1NC(=O)c1cnn2cccnc12 (stereo not drawn) [Example 138]
5 to 10	≥ 90	D (D represents a DC90 value ≥50 nM)		CC(C)Oc1cc2nn(C3CCN(CC4(F)CCN(c5ccc6c(c5)C(=O)N(C5CCC(=O)NC5=O)C6=O)CC4)CC3)cc2cc1NC(=O)c1cnn2cccnc12 (stereo not drawn) [Example 188]
< 1	≥ 90	2 nM		CC(C)Oc1cc2c(cc1NC(=O)c1cnn3cccnc13)CN(C1CCN(CCOCCOc3ccc4c(c3)CN(C3CCC(=O)NC3=O)C4=O)CC1)C2=O (stereo not drawn) [Example 2]
< 1	80 to 90	A (A represents a DC90 value <10.0 nM)		CC(C)Oc1cc2c(cc1NC(=O)c1cnn3cccnc13)CN([C@H]1CC[C@@H](N3CCN(c4ccc5c(c4)CN(C4CCC(=O)NC4=O)C5=O)CC3)CC1)C2=O (stereo partly drawn) [Example 276]
< 1	≥ 90	A (A represents a DC90 value <10.0 nM)		O=C1CCC(N2C(=O)c3ccc(N4CC(CN5CCC(n6cc7cc(NC(=O)c8cnn9cccnc89)c(C8CC8)cc7n6)CC5)C4)cc3C2=O)C(=O)N1 (stereo not drawn) [Example 185]
1 to 5	≥ 90	A (A represents a DC90 value <10.0 nM)		CC(C)Oc1cc2c(cc1NC(=O)c1cnn3cccnc13)CN(C1CCN(C[C@H]3CCN(c4ccc5c(c4)C(=O)N(C4CCC(=O)NC4=O)C5=O)C3)CC1)C2=O (stereo partly drawn) [Example 83]
< 1	80 to 90	A (A represents a DC90 value <10.0 nM)		COC1(CN2CCC(n3cc4cc(NC(=O)c5cnn6cccnc56)c(OCC5CC5)cc4n3)CC2)CN(c2ccc3c(c2)C(=O)N(C2CCC(=O)NC2=O)C3=O)C1 (stereo not drawn) [Example 234]
< 1	≥ 90	A (A represents a DC90 value <10.0 nM)		CC(C)Oc1cc2nn(C3CCN(CC4(F)CN(c5cccc6c5n(C)c(=O)n6C5CCC(=O)NC5=O)C4)CC3)cc2cc1NC(=O)c1cnn2cccnc12 (stereo not drawn) [Example 386]
< 1	80 to 90	A (A represents a DC90 value <10.0 nM)		O=C1CCC(N2Cc3cc(N4CC(F)(CN5CCC(n6cc7cc(NC(=O)c8cnn9cccnc89)c(OCC8CC8)cc7n6)CC5)C4)c(F)cc3C2=O)C(=O)N1 (stereo not drawn) [Example 421]
